This is an account of results in patent publication US12509431B2, “1,4-dihydroquinazolinone compounds and uses thereof” (Edgewise Therapeutics, Inc., priority 2022, dated 2025).

What all share (format): biochemical
Common to all, as to conditions: Table 8

Assay [1] deals with Rabbit Skeletal myofibrils (rabbit psoas muscle). The assay can be described thus: Myofibril ATPase assay (PK/LDH NADH-coupled), skeletal myofibrils. The method, boiled down: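 ATPase rate taken as linear-regression slope of A340 (NADH depletion through PK/LDH coupling) over a 75 min kinetic read, with psoas-derived rabbit skeletal myofibrils at pH 7.0. Four-parameter fits of vehicle-normalized activity give EC25 and, where reached, EC50.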

In assay [2] the target is T1, Porcine Ventricle myofibrils (left ventricle of Yucatan minipigs) (Sus scrofa, UniProt P79293).
T1 construct: Myofibrils from porcine cardiac muscle was isolated from the left ventricle of Yucatan minipigs; tissue Exemplar Genetics; host or cells: left ventricle of Yucatan minipigs
Description: Myofibril ATPase assay (PK/LDH NADH-coupled), ventricle myofibrils. The method, boiled down: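 NADH depletion (A340) coupled through pyruvate kinase/lactate dehydrogenase reports ATPase rate of porcine left-ventricle myofibrils over 75 min kinetic reads. Regression slopes, vehicle-normalized, fitted by 4-parameter logistic give EC25 and, where available, EC50.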

The next assay concerns Porcine Atria myofibrils. Description: Myofibril ATPase assay (PK/LDH NADH-coupled), atria myofibrils. The method, boiled down: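 Values are EC25% (and, for inhibitors, EC50%) from 4-parameter logistic fits of activity normalized to vehicle wells. Rates came from linear regression of 340 nm kinetic reads (every 1.5-2 min, 75 min) of NADH-coupled ATP turnover by porcine atria myofibrils.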

SMILES strings stand for the structures.

T1 sequence (P79293 whole entry): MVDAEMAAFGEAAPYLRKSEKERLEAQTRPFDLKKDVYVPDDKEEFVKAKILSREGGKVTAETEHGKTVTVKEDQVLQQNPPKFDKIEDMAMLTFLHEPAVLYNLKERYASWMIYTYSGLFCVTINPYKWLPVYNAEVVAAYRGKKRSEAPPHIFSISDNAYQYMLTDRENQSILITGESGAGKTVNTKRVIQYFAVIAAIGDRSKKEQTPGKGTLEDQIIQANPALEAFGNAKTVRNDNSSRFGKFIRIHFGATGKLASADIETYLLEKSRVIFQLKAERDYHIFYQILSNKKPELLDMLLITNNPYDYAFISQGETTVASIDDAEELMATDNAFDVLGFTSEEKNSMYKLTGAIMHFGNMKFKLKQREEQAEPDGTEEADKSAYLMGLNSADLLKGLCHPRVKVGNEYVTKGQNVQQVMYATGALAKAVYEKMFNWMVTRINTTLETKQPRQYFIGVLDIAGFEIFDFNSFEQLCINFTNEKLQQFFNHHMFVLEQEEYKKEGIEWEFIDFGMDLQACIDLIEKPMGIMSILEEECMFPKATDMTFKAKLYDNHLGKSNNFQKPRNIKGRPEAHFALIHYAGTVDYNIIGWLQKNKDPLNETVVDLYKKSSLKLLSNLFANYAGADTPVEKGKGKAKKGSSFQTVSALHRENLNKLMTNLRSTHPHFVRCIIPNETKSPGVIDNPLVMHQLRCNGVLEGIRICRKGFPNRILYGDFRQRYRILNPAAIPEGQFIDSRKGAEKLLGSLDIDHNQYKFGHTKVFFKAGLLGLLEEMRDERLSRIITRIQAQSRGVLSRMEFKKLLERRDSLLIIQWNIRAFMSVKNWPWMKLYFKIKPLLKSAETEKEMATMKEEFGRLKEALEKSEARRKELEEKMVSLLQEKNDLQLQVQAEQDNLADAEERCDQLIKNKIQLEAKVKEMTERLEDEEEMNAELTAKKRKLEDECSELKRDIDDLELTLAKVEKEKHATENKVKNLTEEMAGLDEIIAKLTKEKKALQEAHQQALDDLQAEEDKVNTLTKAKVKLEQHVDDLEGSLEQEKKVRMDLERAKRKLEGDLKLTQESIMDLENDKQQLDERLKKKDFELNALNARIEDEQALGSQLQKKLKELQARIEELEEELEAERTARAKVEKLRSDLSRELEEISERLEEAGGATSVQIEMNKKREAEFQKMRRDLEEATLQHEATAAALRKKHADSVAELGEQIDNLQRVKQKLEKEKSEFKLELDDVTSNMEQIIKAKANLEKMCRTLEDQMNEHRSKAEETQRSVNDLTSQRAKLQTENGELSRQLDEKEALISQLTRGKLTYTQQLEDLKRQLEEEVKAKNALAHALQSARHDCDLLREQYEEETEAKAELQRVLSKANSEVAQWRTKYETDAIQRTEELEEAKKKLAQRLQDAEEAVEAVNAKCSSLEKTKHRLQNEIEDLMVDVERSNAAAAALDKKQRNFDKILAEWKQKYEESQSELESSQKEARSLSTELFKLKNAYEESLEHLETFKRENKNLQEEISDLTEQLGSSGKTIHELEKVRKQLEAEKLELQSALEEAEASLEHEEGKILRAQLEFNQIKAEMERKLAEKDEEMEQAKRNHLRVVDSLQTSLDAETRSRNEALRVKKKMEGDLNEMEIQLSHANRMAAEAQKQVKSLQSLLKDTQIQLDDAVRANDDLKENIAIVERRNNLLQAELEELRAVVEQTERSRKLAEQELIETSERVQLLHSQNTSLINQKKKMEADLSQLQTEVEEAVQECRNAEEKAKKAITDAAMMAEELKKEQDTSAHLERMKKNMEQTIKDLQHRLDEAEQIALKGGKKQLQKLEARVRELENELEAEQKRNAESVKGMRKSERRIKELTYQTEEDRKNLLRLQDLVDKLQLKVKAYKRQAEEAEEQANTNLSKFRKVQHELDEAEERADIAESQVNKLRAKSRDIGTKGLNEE

In the case of `C[C@@H](NC(=O)CN1Cc2c(ccc(F)c2F)NC1=O)c1cc2cccnc2cn1` [Compound B270], in assay [1], the “Rabbit Psoas IC25” value was found to be 100.00 µM. In addition, the “Porcine Ventricle IC25” value in assay [2] was found to be 100.00 µM. Besides, the “Porcine Atria IC25” value with Porcine Atria myofibrils is 1.18 µM.
Turning to `C[C@H](NC(=O)CN1Cc2c(ccc(F)c2F)NC1=O)c1cc2cccnc2cn1` [Compound B271], in assay [1], the “Rabbit Psoas IC25” value is 100.00 µM. Further, the “Porcine Ventricle IC25” value in assay [2] amounted to 55.13 µM. For the same molecule, the “Porcine Atria IC25” value in the assay on Porcine Atria myofibrils amounted to 100.00 µM.
Regarding `C[C@@H](NC(=O)[C@H](C)N1Cc2c(ccc(F)c2F)NC1=O)c1ncc(C#N)cc1F` [Compound B272], in assay [1], the “Rabbit Psoas IC25” value was determined as 0.74 µM. For the same molecule, in assay [2], the “Porcine Ventricle IC25” value is 0.75 µM. In addition, in the assay on Porcine Atria myofibrils, the “Porcine Atria IC25” value is 0.05 µM.
The matching figures for `C[C@H](C(=O)N[C@H](C)c1ncc(C#N)cc1F)N1Cc2c(ccc(F)c2F)NC1=O` [Compound B273]: 1.57 µM, 22.58 µM and 1.96 µM.
As for `C[C@@H](NC(=O)CN1Cc2c(ccc(F)c2F)NC1=O)c1ccc2cnccc2n1` [Compound B274], the “Rabbit Psoas IC25” value in assay [1] worked out at 100.00 µM. Further, the “Porcine Ventricle IC25” value in assay [2] is 95.97 µM. Further, the “Porcine Atria IC25” value in the assay with Porcine Atria myofibrils was found to be 1.10 µM.
For the molecule `C[C@H](NC(=O)CN1Cc2c(ccc(F)c2F)NC1=O)c1ccc2cnccc2n1` [Compound B275], the “Rabbit Psoas IC25” value in assay [1] turned out to be 100.00 µM. For the same molecule, the “Porcine Ventricle IC25” value in assay [2] is 100.00 µM. For the same molecule, the “Porcine Atria IC25” value in the assay with Porcine Atria myofibrils was determined as 8.27 µM.
`C[C@@H](NC(=O)CN1Cc2cc3c(cc2NC1=O)OCCO3)c1ncc(C#N)cc1F` [Compound B276]: the “Rabbit Psoas IC25” value in assay [1] was determined as 30.80 µM. In addition, the “Porcine Ventricle IC25” value in assay [2] came out at 23.74 µM. Moreover, the “Porcine Atria IC25” value in the assay on Porcine Atria myofibrils was found to be 100.00 µM.
The matching figures for `C[C@H](NC(=O)CN1Cc2cc3c(cc2NC1=O)OCCO3)c1ncc(C#N)cc1F` [Compound B277]: 100.00 µM, 73.20 µM and 77.49 µM.
The matching figures for `C[C@H](NC(=O)[C@H](C)N1Cc2c(ccc(F)c2F)NC1=O)c1ncc(C#N)cc1F` [Compound B278]: 0.03 µM, 0.09 µM and 0.03 µM.
The matching figures for `C[C@H](NC(=O)[C@@H](C)N1Cc2c(ccc(F)c2F)NC1=O)c1ncc(C#N)cc1F` [Compound B279]: 0.57 µM, 0.70 µM and 0.11 µM.
On to `C[C@@H](NC(=O)CN1Cc2c(ccc(F)c2F)NC1=O)c1ncc(C#N)s1` [Compound B280], for which the “Rabbit Psoas IC25” value in assay [1] was found to be 1.08 µM. Moreover, the “Porcine Ventricle IC25” value in assay [2] was 6.55 µM. In the assay with Porcine Atria myofibrils, the “Porcine Atria IC25” value was determined as 0.61 µM.
For the molecule `C[C@@H](NC(=O)CN1Cc2c(ccc(F)c2F)NC1=O)c1ncc(C2COC2)cn1` [Compound B282], the “Rabbit Psoas IC25” value in assay [1] was 100.00 µM. The “Porcine Ventricle IC25” value in assay [2] is 100.00 µM. In addition, the “Porcine Atria IC25” value in the assay with Porcine Atria myofibrils worked out at 86.13 µM.
Take `C[C@H](NC(=O)CN1Cc2c(ccc(F)c2F)NC1=O)c1ncc(C2COC2)cn1` [Compound B283]: in assay [1], the “Rabbit Psoas IC25” value was found to be 100.00 µM. Also, the “Porcine Ventricle IC25” value in assay [2] worked out at 6.49 µM. Moreover, the “Porcine Atria IC25” value in the assay on Porcine Atria myofibrils was determined as 0.90 µM.
For the molecule `C[C@@H](NC(=O)CN1Cc2c(ccc(F)c2F)NC1=O)c1cc2ccccc2cn1` [Compound B284], the “Rabbit Psoas IC25” value in assay [1] is 100.00 µM. In assay [2], the “Porcine Ventricle IC25” value was 0.44 µM. Besides, the “Porcine Atria IC25” value with Porcine Atria myofibrils stood at 0.87 µM.
Taken in the same sequence, the figures for `C[C@H](NC(=O)CN1Cc2c(ccc(F)c2F)NC1=O)c1cc2ccccc2cn1` [Compound B285] were 100.00 µM, 100.00 µM and 100.00 µM.
For `C[C@@H](NC(=O)CN1Cc2c(ccc(F)c2F)NC1=O)c1ccc2ncccc2n1` [Compound B286], in assay [1], the “Rabbit Psoas IC25” value worked out at 40.68 µM. Moreover, the “Porcine Ventricle IC25” value in assay [2] came to 8.79 µM. In addition, the “Porcine Atria IC25” value in the assay with Porcine Atria myofibrils was determined as 0.55 µM.
Taken in the same sequence, the figures for `C[C@H](NC(=O)CN1Cc2c(ccc(F)c2F)NC1=O)c1ccc2ncccc2n1` [Compound B287] were 100.00 µM, 100.00 µM and 75.65 µM.
The matching figures for `C[C@@H](NC(=O)CN1Cc2c(ccc(F)c2F)NC1=O)c1ccc2ccccc2n1` [Compound B288]: 3.98 µM, 5.29 µM and 0.26 µM.
Taken in the same sequence, the figures for `C[C@H](NC(=O)CN1Cc2c(ccc(F)c2F)NC1=O)c1ccc2ccccc2n1` [Compound B289] were 100.00 µM, 100.00 µM and 100.00 µM.
For the molecule `C[C@@H](NC(=O)CN1Cc2c(ccc(F)c2F)NC1=O)c1ncc(Br)cc1F` [Compound B292], the “Rabbit Psoas IC25” value in assay [1] came out at 0.42 µM. For the same molecule, in assay [2], the “Porcine Ventricle IC25” value amounted to 0.54 µM. In addition, in the assay on Porcine Atria myofibrils, the “Porcine Atria IC25” value was 0.16 µM.
The matching figures for `N#Cc1cnc2c(c1)CC[C@H]2NC(=O)CN1C(=O)Nc2ccc(F)cc2C12CC2` [Compound B294]: 1.83 µM, 39.99 µM and 46.59 µM.
In the case of `N#Cc1cnc2c(c1)CC[C@@H]2NC(=O)CN1C(=O)Nc2ccc(F)cc2C12CC2` [Compound B295], in assay [1], the “Rabbit Psoas IC25” value was 0.17 µM. Also, the “Porcine Ventricle IC25” value in assay [2] was 0.35 µM. Besides, in the assay on Porcine Atria myofibrils, the “Porcine Atria IC25” value is 0.25 µM.
Taken in the same sequence, the figures for `O=C(CN1C(=O)Nc2ccc(F)c(F)c2C12CC2)N[C@@H]1COc2cc(F)cnc21` [Compound B296] were 0.06 µM, 0.39 µM and 0.07 µM.
Turning to `Cc1cccc2c1C1(CC1)N(CC(=O)N[C@@H]1COc3cc(C#N)cnc31)C(=O)N2` [Compound B299], in assay [1], the “Rabbit Psoas IC25” value is 63.22 µM. In assay [2], the “Porcine Ventricle IC25” value stood at 100.00 µM. Moreover, the “Porcine Atria IC25” value with Porcine Atria myofibrils was 67.41 µM.
Taken in the same sequence, the figures for `Cc1cccc2c1C1(CC1)N(CC(=O)N[C@H]1COc3cc(C#N)cnc31)C(=O)N2` [Compound B300] were 1.39 µM, 1.42 µM and 1.42 µM.
Taken in the same sequence, the figures for `Cc1cccc2c1C1(CC1)N(CC(=O)N[C@H](C)c1cnc(C#N)cn1)C(=O)N2` [Compound B301] were 2.52 µM, 14.90 µM and 4.28 µM.
For `Cc1cccc2c1C1(CC1)N(CC(=O)N[C@@H](C)c1cnc(C#N)cn1)C(=O)N2` [Compound B302], in assay [1], the “Rabbit Psoas IC25” value amounted to 5.65 µM. The “Porcine Ventricle IC25” value in assay [2] was determined as 2.85 µM. For the same molecule, the “Porcine Atria IC25” value with Porcine Atria myofibrils turned out to be 1.08 µM.
The matching figures for `N#Cc1cc(F)c2c(c1)OC[C@H]2NC(=O)CN1C(=O)Nc2cccc(C#N)c2C12CC2` [Compound B303]: 0.02 µM, 0.09 µM and 0.08 µM.
Taken in the same sequence, the figures for `N#Cc1cc(F)c2c(c1)OC[C@@H]2NC(=O)CN1C(=O)Nc2cccc(C#N)c2C12CC2` [Compound B304] were 1.05 µM, 3.96 µM and 1.12 µM.
The matching figures for `C[C@@H](NC(=O)CN1C(=O)Nc2ccc(F)c(F)c2C12CC2)c1ncc(C#N)cc1Cl` [Compound B306]: 0.61 µM, 0.18 µM and 0.10 µM.
Regarding `C[C@H](NC(=O)CN1C(=O)Nc2ccc(F)c(F)c2C12CC2)c1ncc(C#N)cc1Cl` [Compound B307], the “Rabbit Psoas IC25” value in assay [1] is 0.02 µM. Moreover, the “Porcine Ventricle IC25” value in assay [2] was found to be 0.07 µM. For the same molecule, the “Porcine Atria IC25” value with Porcine Atria myofibrils is 0.05 µM.
The matching figures for `Cc1cccc2c1C1(CC1)N(CC(=O)N[C@H](C)c1ncc(C#N)nc1C)C(=O)N2` [Compound B308]: 100.00 µM, 100.00 µM and 20.75 µM.
The matching figures for `Cc1cccc2c1C1(CC1)N(CC(=O)N[C@@H](C)c1ncc(C#N)nc1C)C(=O)N2` [Compound B309]: 2.23 µM, 10.57 µM and 10.36 µM.
The matching figures for `N#Cc1cnc2c(c1)OC[C@H]2NC(=O)CN1C(=O)Nc2cccc(C#N)c2C12CC2` [Compound B310]: 0.08 µM, 0.37 µM and 0.16 µM.
Consider `N#Cc1cnc2c(c1)OC[C@@H]2NC(=O)CN1C(=O)Nc2cccc(C#N)c2C12CC2` [Compound B311], for which the “Rabbit Psoas IC25” value in assay [1] was 100.00 µM. Moreover, the “Porcine Ventricle IC25” value in assay [2] amounted to 86.79 µM. Further, in the assay with Porcine Atria myofibrils, the “Porcine Atria IC25” value came out at 100.00 µM.
Take `Cc1cccc2c1C1(CC1)N(CC(=O)N[C@@H]1COc3cc(C#N)cc(F)c31)C(=O)N2` [Compound B312]: the “Rabbit Psoas IC25” value in assay [1] is 0.05 µM. For the same molecule, the “Porcine Ventricle IC25” value in assay [2] came out at 0.18 µM. Further, in the assay with Porcine Atria myofibrils, the “Porcine Atria IC25” value amounted to 0.10 µM.
